The record followed here is patent US7718618B2, “Human cathelicidin antimicrobial peptides” (priority 2003, dated 2010).

The subject of series [1] is enteroinvasive E. coli 029. Briefly: Radial diffusion assay against E. coli O29. The class given is cell-based. Here is the method: (§1) As a positive control, synthetic LL-37 was applied to separate wells. After incubation at 37° C. overnight, the inhibition zones were recorded by CCD camera and diameters measured. To evaluate antimicrobial activity against wild-type S. aureus (clinical isolate), and enteroinvasive E. coli 029, both radial diffusion and solution killing assays were done. Radial diffusion assays were done as described for S. aureus mprF. Solution killing was done in 10% TSB in 10 mM PB (TSB=30 gm/L Tryptic Soy Broth, Sigma, St Louis Mo.; 20×PB=27.6 g/L NaH2PO4-H2O, 53.65 g/L Na2HPO4-7H2O, pH 7.4). Bacteria in log-phase growth were suspended to 1×10^6 cells/ml, peptide added and incubated at 37° C. for 2 hr. Bacteria were then plated on TSB agar (TSB, Bactoagar 13 g/L, Becton Dickinson, Sparks Md.) for direct colony count and determination of CFU.

For the next series, the system named is C. albicans ATCC 14053. The class given is cell-based, Candida albicans. Here is the method: (§2) Activity against Group A Streptococcus (NZ131) was done only in solution assay as described. To evaluate antimicrobial activity in high salt conditions, solution assay was done in 10% TSB/10 mM PBS with several salt concentrations (concentration of NaCl; 10, 50, 100, 150, 300, 500 mM). Action against the C. albicans was determined in Dixon medium (0.6% Peptone, 4% Malt Extract, 1% Glucose, 0.1% Ox Bile, 1% Tween-80) in sterile 96-well microtiter plates (Corning Inc., Corning, N.Y.) at a final volume of […]. The assay mixtures contained 1-2.5×10^4 […] freshly grown Candida, 20% Dixon medium, 0.6 mM phosphate buffer pH 7, and […] chloramphenicol. Microtiter plates were incubated at 37° C. for 24 h with peptides, then plated on Dixon agar to determine the MFC (minimum fungicide concentration).

Series [2] relates to Staphylococcus aureus mprF. Briefly: Radial diffusion assay against S. aureus mprF. The class given is cell-based. The method, then: Antimicrobial assays. For screening of antimicrobial activity of HPLC fractions, radial diffusion assay was used. Lyophilized HPLC fractions were dissolved in DW (GibcoBRL, Grand Island, N.Y.), and tested against Staphylococcus aureus mprF. Thin plates (1 mm) of 1% agarose in 0.5% tryptone containing approximately 1×10^6 cells/ml of S. aureus mprF were used. 1 mm wells were punched in the plates and […] of samples dissolved in tissue culture grade sterile water were loaded in each well.
as §1

The test system of series [3] is wild-type S. aureus (clinical isolate). In words: Radial diffusion assay against wild-type S. aureus. The class given is cell-based, Staphylococcus aureus. The method, then: as §1
The test system of series [4] is Group A Streptococcus (NZ131). The class given is cell-based. The method, then: as §1, §2
The test system of a further series is S. aureus mprF. In words: LL-37 incubated in sweat, radial diffusion assay against S. aureus mprF. The class given is cell-based, Staphylococcus aureus. The settings on record: protease inhibitor added during incubation, 37° C., 6 hr. The method, then:
Antibacterial activity evaluated by radial diffusion assay against S. aureus mprF after incubation of LL-37 (32 uM) in sweat. a) Increase in the inhibition zone is seen when incubated in sweat but not 10 mM PBS or distilled water (DW). b) Diameters of inhibition zone after 6 hr incubation at 37° C. in (SWT buffer; sweat buffer salts alone), (PBS), (D.W.; distilled water), (SWT; sterile filtered human sweat at 37° C.), (SWT at 4° C.), (SWT with PI, with protease inhibitor cocktail). c) Action of specific protease inhibitors on gain of antimicrobial activity. […] N.E.I.=neutrophil elastase inhibitor, L.E.I.=leukocyte elastase inhibitor. Data are triplicate determinations±SEM from single experiment representative of 3.
Sweat collection and processing. Sweat was collected on paper tissues (Kimwipes, Kimberly-Clark, GA) from healthy volunteers after exercise. After collection, 20 ml of sweat was centrifuged at 2000 g for 15 min. at 4° C., filtered through a […] (Acrodisc syringe filter, […], low protein binding, Fisher scientific, Tustin, Calif.), and frozen at −80° C. […] Protein concentrations were evaluated by BCA assay (protein assay reagent, Pierce, Rockford, Ill.) or Bradford protein assay (Bio-Rad, Hercules, Calif.) according to manufacture's instructions. […]

For a further series, the system named is Salmonella. Briefly: Salmonella susceptibility to CRAMP. The class given is cell-based. The following applies: 16 μM peptide, without NaHCO3.
In the next series the test system is Staphylococcus aureus. Briefly: S. aureus growth inhibition (turbidity OD600) with or without carbonate. In kind it is cell-based. The method, then: Carbonate was identified as the antimicrobial enhancing factor in mammalian tissue culture media via serial deletion of Minimal Essential Media (MEM) components. Staphylococcus aureus was cultured in 20% Tryptic Soy Broth (TSB), 10% Fetal Bovine Serum (FBS) and 70% of various media or media components with, or without, 32 μM LL-37 to assess which components could increase antimicrobial activity. MEM buffers are 2200 mg/L NaHCO3, 140 mg/L NaH2PO4 and 6800 mg/L NaCl. MEM salts are 200 mg/L CaCl2, 400 mg/L KCl, 98 mg/L MgSO4. All solutions were adjusted to pH 7.4. Bacterial growth was measured as the change in turbidity at OD600 and percent inhibition was determined by comparing bacterial growth in the presence of peptide to that in the absence of peptide.
Inhibition of S. aureus was measured in 20% TSB, 10% FBS 1 mM NaH2PO4, 150 mM NaCl, with either 50 mM NaHCO3 or […] Glycine buffer at various pH.
Inhibition of Staph aureus growth in the presence of various concentrations of human (LL-37), murine (CRAMP) and porcine (PR-39). Cathelicidin antimicrobial peptides was measured in 20% TSB, 1 mM NaH2PO4, with, or without, […] NaHCO3 at pH 7.4.
The growth of S. aureus in the presence, or absence, of 32 μM LL-37 was measured in 20% TSB, 10% FBS, 1 mM NaH2PO4, 150 mM NaCl, and various concentrations of NaHCO3, all at pH 7.4. […] High concentrations of NaHCO3 retarded the growth of S. aureus. […]

In a further series the test system is E. coli. In words: E. coli susceptibility to CRAMP with or without NaHCO3. In kind it is cell-based.
The next series has as its system Group B Strep (GBS). In words: Group B Strep susceptibility to CRAMP. The class given is cell-based. The settings on record: 16 μM peptide, without NaHCO3.
The next series has as its system antigen presentation. In words: Antigen presentation in vitro. The class given is cell-based.
A further series relates to S. aureus. In words: Release of cytoplasmic beta-galactosidase from S. aureus (membrane disruption). The class given is cell-based. The settings on record: with versus without NaHCO3. An excerpt: Release of cytoplasmic expressed beta-galactosidase was measure from bacteria with and without the addition of NaHCO3.
A further series concerns human erythrocytes. In words: Hemolysis assay on human whole blood. The class given is cell-based. The settings on record: peptide at 100 μM; relative to 0.1% Triton X-100. Here is the method: Hemolysis Assay. Hemolytic activity was determined on human whole blood. Freshly obtained whole blood was washed 3× in PBS and resuspended in PBS at its original volume containing peptides at indicated concentrations. Samples were incubated at 37° C. for 1.5 to 3 h, and hemolysis determined by centrifuging at 300 g and measurement of the absorbance of the supernatant at 578 nm. Hemolytic activity of each peptide was expressed as the percentage of total hemoglobin released compared to that released by incubating with 0.1% Triton X-100.

Where [5] appears, read: 16 μM peptide in presence of NaHCO3.
[6] abbreviates: 16 μM peptide without SOM NaHCO3.

Ends that are not written are not given here.

As to “H-RKSKEKIGKEFKRIVQRIKDFLRNLVPRTES-OH [RK-31]”, in [1], the “action against E. coli compared to LL-37” value is listed as “greatly increased action” and the “Radial Diffusion Assay E. coli (O29), minimal inhibitory concentration (MIC)” value was found to be 8 μm. Moreover, the “Liquid Assay C. albicans ATCC 14053, minimal concentration required to kill” value with C. albicans ATCC 14053 is on record as 4 μm. Besides, the “Radial Diffusion Assay S. aureus MprF, minimal inhibitory concentration (MIC)” value in [2] is listed as 8 μm. Further, in series [3], the “action against wild-type S. aureus compared to LL-37” value was “greatly increased action” and the “Radial Diffusion Assay S. aureus (wt), minimal inhibitory concentration (MIC)” value is given as 16 μm. Also, the “Liquid Assay GAS (NZ131), minimal concentration required to kill” value (“Liquid Assay GAS (NZ131)” for short) in series [4] worked out at 8 μm.
For `NCCc1ccc(S(=O)(=O)F)cc1` [AEBSF], the “blocking of the increase in antimicrobial activity of LL-37 in sweat” value with S. aureus mprF is listed as “most effective in blocking the increase in antimicrobial activity”.
Regarding CRAMP, in the series on Salmonella, the “susceptibility of Salmonella” value was “susceptible even without NaHCO3”. Further, the “susceptibility of S. aureus” value was “became susceptible” in the series with Staphylococcus aureus (setting [5]) and “resistant” with Staphylococcus aureus (setting [6]). In addition, the “susceptibility of E. coli” value is “became susceptible” in the series with E. coli (setting [5]) and “resistant” in the series on E. coli (setting [6]). For the same compound, the “susceptibility of Group B Strep (GBS)” value with Group B Strep (GBS) is given as “susceptible even without NaHCO3”. Further, in the series with antigen presentation, the “antigen presentation in vitro” value is on record as “inhibits antigen presentation in vitro”.
On to Polymyxin B, for which the “leakage of cytoplasmic protein (beta-galactosidase)” value with S. aureus is “induces greater leakage of cytoplasmic protein with carbonate”.
On to Aprotinin, for which the “blocking of the increase in antimicrobial activity of LL-37 in sweat” value in the series with S. aureus mprF is given as “most effective in blocking the increase in antimicrobial activity”.
Regarding `CC[C@H](C)[C@H](NC(=O)[C@H](CCCCN)NC(=O)[C@H](CCC(=O)O)NC(=O)[C@H](CCCCN)NC(=O)[C@H](CO)NC(=O)[C@H](CCCCN)NC(=O)[C@H](CCCNC(=N)N)NC(=O)[C@H](Cc1ccccc1)NC(=O)[C@H](Cc1ccccc1)NC(=O)[C@H](CC(=O)O)NC(=O)CNC(=O)[C@H](CC(C)C)NC(=O)[C@@H](N)CC(C)C)C(=O)NCC(=O)N[C@@H](CCCCN)C(=O)N[C@@H](CCC(=O)O)C(=O)N[C@@H](Cc1ccccc1)C(=O)N[C@@H](CCCCN)C(=O)N[C@@H](CCCNC(=N)N)C(=O)N[C@H](C(=O)N[C@H](C(=O)N[C@@H](CCC(N)=O)C(=O)N[C@@H](CCCNC(=N)N)C(=O)N[C@H](C(=O)N[C@@H](CCCCN)C(=O)N[C@@H](CC(=O)O)C(=O)N[C@@H](Cc1ccccc1)C(=O)N[C@@H](CC(C)C)C(=O)N[C@@H](CCCNC(=N)N)C(=O)N[C@@H](CC(N)=O)C(=O)N[C@@H](CC(C)C)C(=O)N[C@H](C(=O)N1CCC[C@H]1C(=O)N[C@@H](CCCNC(=N)N)C(=O)N[C@H](C(=O)N[C@@H](CCC(=O)O)C(=O)N[C@@H](CO)C(=O)O)[C@@H](C)O)C(C)C)[C@@H](C)CC)C(C)C)[C@@H](C)CC` [LL-37], the “% hemolysis” value in the series on human erythrocytes is reported as 9%.
As for “SSLLEKGLDGAKKAVGGLGKLGKDAVEDLESVGKGAVHDVKDVLDSV (listed as Homo sapiens) [DCD, dermcidin antimicrobial peptide of human sweat, reference compound]”, the “Radial Diffusion Assay E. coli (O29), minimal inhibitory concentration (MIC)” value in series [1] was greater than 64 μm. Moreover, the “Liquid Assay C. albicans ATCC 14053, minimal concentration required to kill” value in the series on C. albicans ATCC 14053 was greater than 32 μm. In [2], the “Radial Diffusion Assay S. aureus MprF, minimal inhibitory concentration (MIC)” value was greater than 64 μm. Further, the “Radial Diffusion Assay S. aureus (wt), minimal inhibitory concentration (MIC)” value in series [3] is greater than 64 μm. For the same compound, the “Liquid Assay GAS (NZ131)” value in series [4] is on record as greater than 64 μm.
Turning to KRIVQRIKDFLRNLVPRTES [KR-20], in series [1], the “Radial Diffusion Assay E. coli (O29), minimal inhibitory concentration (MIC)” value is on record as greater than 64 μm. In addition, the “Liquid Assay C. albicans ATCC 14053, minimal concentration required to kill” value in the series with C. albicans ATCC 14053 is given as 10 μm. Besides, in series [2], the “Radial Diffusion Assay S. aureus MprF, minimal inhibitory concentration (MIC)” value turned out to be 16 μm. The “Radial Diffusion Assay S. aureus (wt), minimal inhibitory concentration (MIC)” value in [3] is greater than 64 μm. For the same compound, the “Liquid Assay GAS (NZ131)” value in series [4] was determined as 4 μm.
With “H-KSKEKIGKEFKRIVQRIKDFLRNLVPRTES-OH [KS-30]”, in series [1], the “action against E. coli compared to LL-37” value is “greatly increased action” and the “Radial Diffusion Assay E. coli (O29), minimal inhibitory concentration (MIC)” value worked out at 8 μm. In addition, the “Liquid Assay C. albicans ATCC 14053, minimal concentration required to kill” value in the series with C. albicans ATCC 14053 amounted to 2 μm. For the same compound, the “Radial Diffusion Assay S. aureus MprF, minimal inhibitory concentration (MIC)” value in series [2] is recorded as 8 μm. In series [3], the “action against wild-type S. aureus compared to LL-37” value is given as “greatly increased action” and the “Radial Diffusion Assay S. aureus (wt), minimal inhibitory concentration (MIC)” value turned out to be 16 μm. Further, in series [4], the “Liquid Assay GAS (NZ131)” value is 4 μm.
